One experiment relates to dengue virus type 2. The experiment can be described thus: Antiviral activity agaisnt DENV-2 strain New Guinea C infected with hamster BHK-21 cells assessed as reduction in viral growth. Format: functional, organism-based.
Experiment [1] has as its system Ebolavirus. The experiment can be described thus: Antiviral activity against Ebola virus infected in human HeLa cells assessed as reduction in viral cytopathic effect. The experiment is classed as functional, organism-based. The note with it: Orthoebolavirus.
Experiment [2] deals with Hepatitis C virus. The experiment can be described thus: Antiviral activity against HCV infected in human Huh-7 cells assessed as reduction in viral replication. The experiment is classed as functional, organism-based, Hepacivirus hominis.
Experiment [3] can be described thus: Inhibition of HCV RNA. The experiment is classed as functional, Hepacivirus hominis.
Experiment [4] concerns Ebolavirus. Briefly: Antiviral activity against pseudotyped Ebola virus infected in HeLa cells assessed as reduction in viral infection incubated for 48 hrs by firefly luciferase assay. The experiment is classed as functional, organism-based. As to conditions: Orthoebolavirus.
In experiment [5] the test system is Hepatitis C virus. The experiment can be described thus: Antiviral activity against HCV infected in Huh-7 assessed as inhibition of HCV RNA replication at 5 nM relative to control. Format: functional, Hepacivirus hominis. Also on record: scale not given: the % may be the effect or the level left.
The target of experiment [6] is Replicase polyprotein 1ab (Severe acute respiratory syndrome-related coronavirus, UniProt P0C6X7). The experiment can be described thus: Inhibition of SARS-CoV-1 Main Protease.
For experiment [7], the target named is Replicase polyprotein 1ab (Severe acute respiratory syndrome coronavirus 2, UniProt P0DTD1). The experiment can be described thus: Inhibition of SARS-CoV-2 main protease.
Experiment [8] is described as follows: Inhibition of MERS-CoV Main protease. Set-up: species or system Middle East respiratory syndrome-related coronavirus.
Experiment [9] concerns the target Spike glycoprotein/Angiotensin-converting enzyme 2 (Severe acute respiratory syndrome coronavirus 2, UniProt P0DTC2+Q9BYF1). Briefly: Inhibition of SARS-CoV-2 spike protein RBD- human ACE2 interaction incubated for 1 hr by colorimetric ELISA assay. (In general: ELISA stands for enzyme-linked immunosorbent assay.)
The subject of experiment [10] is Chikungunya virus. Briefly: Antiviral activity against CHIKV infected in HEK293T cells. Format: functional, organism-based. The note with it: HEK-293T.
Experiment [11] relates to Hepatitis C virus. Briefly: Antiviral activity against HCV infected in human Huh-7.5.1 cells assessed as reduction in viral infection incubated for 48 hrs. The experiment is classed as functional, organism-based, Hepacivirus hominis. The note with it: Huh-7.5.1, 48 h.
For experiment [12], the system named is Hepatitis C virus. The experiment can be described thus: Antiviral activity against HCV infected in Huh-7 assessed as reduction in viral RNA replication at 0.5 nM relative to control. Also on record: scale not given: the % may be the effect or the level left. The experiment is classed as functional, Hepacivirus hominis.
For experiment [13], the system named is Hepatitis C virus. The experiment can be described thus: Antiviral activity against HCV infected in human Huh7.5.1 cells assessed as decrease in viral infection. Format: functional, organism-based, Hepacivirus hominis. The note with it: Huh-7.5.1.
Experiment [14] concerns Chikungunya virus. The experiment can be described thus: Antiviral activity against CHIKV infected in Vero 76 cells assessed as reduction in cytopathic effect. The experiment is classed as functional, organism-based. (In general: Cytopathic effects are the visible damage that an infection or toxin causes in cultured cells.)
For another experiment, the system named is SARS-CoV-2. Briefly: Antiviral activity against SARS-CoV-2. Format: functional, organism-based, Severe acute respiratory syndrome coronavirus 2.

Where a SMILES comes first, the peptide text is derived from it. A value given as a limit tells only on which side of the number the result lay.

These results are taken from ChEMBL document CHEMBL5335821, “Antiviral Protein-Protein Interaction Inhibitors” (J Med Chem, 2024).

Spike glycoprotein/Angiotensin-converting enzyme 2, sequence (Q9BYF1 18-805 limits assumed, other chains not shown): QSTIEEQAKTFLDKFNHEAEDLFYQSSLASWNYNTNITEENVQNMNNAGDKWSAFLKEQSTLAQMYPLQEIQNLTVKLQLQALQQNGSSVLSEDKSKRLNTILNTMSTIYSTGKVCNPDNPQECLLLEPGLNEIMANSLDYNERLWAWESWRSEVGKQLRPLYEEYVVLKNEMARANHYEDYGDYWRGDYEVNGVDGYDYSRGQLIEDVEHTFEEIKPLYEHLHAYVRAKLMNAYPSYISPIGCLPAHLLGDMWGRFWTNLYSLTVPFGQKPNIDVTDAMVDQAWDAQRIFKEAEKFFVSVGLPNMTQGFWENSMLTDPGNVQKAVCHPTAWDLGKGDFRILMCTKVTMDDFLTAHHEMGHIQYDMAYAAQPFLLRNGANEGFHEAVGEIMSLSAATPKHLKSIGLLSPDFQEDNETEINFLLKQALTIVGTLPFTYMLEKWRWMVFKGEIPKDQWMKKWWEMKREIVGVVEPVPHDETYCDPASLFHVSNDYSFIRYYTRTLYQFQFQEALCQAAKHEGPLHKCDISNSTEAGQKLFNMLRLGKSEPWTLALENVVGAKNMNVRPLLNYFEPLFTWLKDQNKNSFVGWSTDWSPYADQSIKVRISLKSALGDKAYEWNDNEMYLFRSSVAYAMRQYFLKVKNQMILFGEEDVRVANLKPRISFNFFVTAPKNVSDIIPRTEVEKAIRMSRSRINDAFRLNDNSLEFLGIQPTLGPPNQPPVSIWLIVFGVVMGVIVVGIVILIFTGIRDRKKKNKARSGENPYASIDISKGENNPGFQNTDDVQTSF

As usually defined, the EC50 is the midpoint of the concentration-response curve. `Clc1ccc(-c2ccc(-c3nc(NCc4cccnc4)nc4ccccc34)s2)cc1`: in the experiment on dengue virus type 2, the EC50 was determined as 68 nM.

The IC50 is the concentration needed to halve the response being measured. As to `COC(=O)c1ccc(COc2ccccc2CN2CCN(C(=O)CNC(=O)CC34CC5CC(CC(C5)C3)C4)CC2)cc1`, the IC50 with Ebolavirus [1] worked out at 130 nM. Take `O=C(CC12CC3CC(CC(C3)C1)C2)NCC(=O)N1CCN(Cc2ccccc2)CC1`: in the experiment with Ebolavirus [1], the IC50 worked out at 1600 nM. Regarding `C[C@H]1O[C@@H](O[C@H]2CC[C@@]3(C)[C@@H](CC[C@]4(C)[C@@H]3C=CC3=C5CC(C)(C)CC[C@]5(CO)[C@H](O)C[C@]34C)[C@]2(C)CO)[C@H](O)[C@@H](O[C@@H]2O[C@H](CO)[C@@H](O)[C@H](O)[C@H]2O)[C@H]1O`, in the experiment with Hepatitis C virus [2], the EC50 turned out to be 20700 nM. Regarding `COc1cc(C[C@@]2(O)C(=O)OC[C@@H]2Cc2ccc(OC)c(OC)c2)ccc1O`, the IC50 in [3] came to 670 nM.

For the molecule `FC(C1=Nc2ccccc2N=C(c2ccccc2)C1)C(F)(F)F` (stereo not given), the IC50 in the experiment on Ebolavirus [4] came to 10000 nM. For the molecule `CSCC[C@H](NC(=O)[C@H](Cc1c[nH]c2ccccc12)NC(=O)[C@@H](NC(=O)[C@H](CS)NC(=O)CNC(=O)[C@H](Cc1ccccc1)NC(=O)[C@H](Cc1c[nH]c2ccccc12)NC(=O)[C@H](CO)NC(=O)CNC(=O)[C@@H](N)CCC(N)=O)[C@@H](C)O)C(=O)N[C@@H](CC(N)=O)C(=O)N[C@@H](CO)C(=O)N[C@H](C(=O)NCC(=O)N[C@@H](Cc1ccccc1)C(=O)O)[C@@H](C)O`, in the experiment on Hepatitis C virus [5], the Activity worked out at 50%. `Cc1cc2nc3s/c(=C/c4ccc(-c5cccc(C(=O)O)c5)o4)c(=O)n3c2cc1C`: the IC50 in experiment [6] is 59 nM; in [7] it was 55 nM; in experiment [8], 75 nM.

On to `CN1C(=O)c2ccccc2[S+]([O-])c2cc([N+](=O)[O-])ccc2S1(=O)=O` (stereo not given), for which the midpoint of inhibition in experiment [9], the IC50, lay at 670 nM. `COc1cc(OC)c2c(c1)O[C@@]1(c3ccc(Br)cc3)[C@H](c3ccccc3)C[C@@H](O)[C@@]21O` yielded an IC50 in the experiment with Chikungunya virus [10] of 22.4 nM. Take `CC[C@H](C)[C@H](NC(=O)[C@H](C)NC(=O)[C@H](Cc1c[nH]c2ccccc12)NC(=O)[C@H](CO)NC(=O)[C@H](C)N)C(=O)N[C@@H](CCCCN)C(=O)N[C@@H](Cc1c[nH]c2ccccc12)C(=O)N[C@@H](CCC(=O)O)C(=O)N[C@@H](Cc1ccc(O)cc1)C(=O)N[C@H](C(=O)N[C@H](C(=O)N[C@@H](CC(C)C)C(=O)N[C@@H](CC(C)C)C(=O)N[C@@H](Cc1ccccc1)C(=O)N[C@@H](CC(C)C)C(=O)N[C@@H](CC(C)C)C(=O)O)C(C)C)C(C)C` (H-ASWAIKWEYVVLLFLL-OH): the IC50 with Hepatitis C virus [11] was found to be 51000 nM. Also, in the experiment on Hepatitis C virus [12], the Activity came out at 60%.

As for `CC(C)[C@H](NC(=O)[C@H](Cc1c[nH]c2ccccc12)NC(=O)[C@@H](NC(=O)[C@H](C)N)[C@@H](C)O)C(=O)N[C@@H](CS)C(=O)NCC(=O)N1CCC[C@H]1C(=O)N[C@@H](CS)C(=O)N[C@H](C(=O)O)[C@@H](C)O` (H-ATWVCGPCT-OH), in the experiment on Hepatitis C virus [13], the IC50 was 5500 nM. Take `COc1ccc2cc3[n+](cc2c1OC)CCc1cc2c(cc1-3)OCO2` [BERBERINE]: the EC50 in the experiment with Hepatitis C virus [2] came out at 7870 nM. Same read-out and setting: the result for `COc1c(NC(=O)C(=O)c2ccc(OCCN3CCOCC3)c3ccccc23)cc(C(C)(C)C)cc1NS(C)(=O)=O` [ITX-5061 FREE BASE] reads 0.1 nM. As for `Cc1ccc(C(=O)Nc2ccc(S(=O)(=O)O)c3cc(S(=O)(=O)O)cc(S(=O)(=O)O)c23)cc1NC(=O)c1cccc(NC(=O)Nc2cccc(C(=O)Nc3cc(C(=O)Nc4ccc(S(=O)(=O)O)c5cc(S(=O)(=O)O)cc(S(=O)(=O)O)c45)ccc3C)c2)c1` [SURAMIN], the IC50 in the experiment on Chikungunya virus [14] worked out at 5680 nM. On the same count and under the same terms, for `CCOC(=O)c1c(CSc2ccccc2)n(C)c2cc(Br)c(O)c(CN(C)C)c12` [UMIFENOVIR] the value was less than 20900 nM.

IVERMECTIN had an EC50 with SARS-CoV-2 of 4110 nM.
